Tests used:
[1] = Tolerance to prolonged administration in mice (30 days); assay type: in vivo, souris; conditions: 2 g/kg once daily or 1 g/kg twice daily
Description: La tolérance à l'administration prolongée du DAH a été évaluée sur un groupe de 10 souris traitées pendant 30 jours à une injection quotidienne de 2 g/kg, et un groupe de 10 souris recevant pendant la même durée deux injections de 1 g/kg par jour. La tolérance a été excellente, sans signe clinique de toxicité, sans décès et avec un poids corporel restant dans un intervalle de +/- 10 % par rapport à un groupe contrôle de même âge et de même poids initial.

virus de Friend = assay: Survival of mice infected with Friend virus; assay type: in vivo, souris DBA/2
Description: Dans d'autres essais, le virus a été maintenu par passages successif intrapéritonéaux chez la souris DBA/2. Cet entretien a été fait à partir de la rate de l'animal tous les 21 jours. L'activité du DAH a été évaluée en comparant les durées de survie des animaux à qui est injecté le virus, avec ou sans DAH. Le traitement a commencé trois jours après l'infection virale car on considère qu'il faut ce laps de temps pour qu'il y ait des séquences du virus dans le génome des précurseurs érythroïdes de la souris infectée. Après avoir fait varier le nombre d'injections journalières et la durée du traitement pour une dose donnée, il a été établi que 3 injections de 1g/kg/dose de DAH durant les 10 premiers jours et 2 injections de 1g/kg/dose de DAH pendant les 20 jours suivants, produisent un T/C de 239 %. Les résultats sont rapportés dans le tableau suivant : Tableau 2

[2] = Pre-clinical pharmacology: DAH levels in serum and urine after intraperitoneal injection; assay type: in vivo, souris B6D2F1; conditions: 3 g/kg intraperitoneal
Description: Le DAH a été dosé dans les sérums et les urines de souris B6D2F1 âgées de 8 semaines, ayant reçu une injection intrapéritonéale de DAH de 3 g/kg. Le DAH a été dosé par spectrophotométrie par mise en évidence du complexe Fe3+- hydroxamate à 550 nm.

[3] = test system: lymphocytes de donneurs sains; assay: Growth and cell mortality of uninfected lymphocytes from healthy donors; assay type: cell-based; conditions: 0,5-2 mM DAH
Description: (§1) Cette inhibition est dose-dépendante. Les essais ont d'abord porté sur des lymphoytes de donneurs sains (Figures 1 et 2). On a pu mettre en évidence cette activité sur deux modèles de réplication du HIV : a) lymphocytes normaux infectés par le virus purifié et b) coculture des lymphocytes des malades du SIDA et de lymphocytes normaux. On a mesuré l'activité transcriptase inverse pendant 22 jours dans le surnageant de cultures cellulaires comme critère de prolifération virale. Le traitement avec le DAH a duré 72 heures de J₀ à J₃ de la manipulation (Figures 3, 4 et 5). […] Par contre, le DAH s'est montré plus toxique vis-à-vis des lymphocytes infectés par le virus du SIDA (Figures 6 et 7).
Effet du DAH sur le taux de croissance de lymphocytes de donneurs sains.
(●) absence de DAH (o) concentration en DAH = 0,5 mM (□) concentration en DAH = 1 mM (△) concentration en DAH = 1,5 mM (◇) concentration en DAH = 2 mM • . En abscisses : temps de culture (en jours) • . En ordonnées : taux de croissance
Effet du DAH sur la mortalité cellulaire de lymphocytes sains.
(●) absence de DAH (o) concentration en DAH = 0,5 mM (□) concentration en DAH = 1 mM (△) concentration en DAH = 1,5 mM (◇) concentration en DAH = 2 mM • . En abscisses : temps de culture (en jours) • . En ordonnées : proportion de cellules mortes (en %)

[4] = test system: leucémie 1210, lymphome RBL5 et mélanome B16; conditions: 600 mg/kg per day for 5 days; cited from earlier work
[5] = test system: lymphocytes infectés par le virus du SIDA; assay: Growth and cell mortality of HIV-infected lymphocytes; assay type: cell-based; conditions: 0,5-2 mM DAH; compared with uninfected lymphocytes
Description: as §1
Effet du DAH sur le taux de croissance de lymphocytes infectés.
(●) absence de DAH (o) concentration en DAH = 0,5 mM (□) concentration en DAH = 1 mM (△) concentration en DAH = 1,5 mM (◇) concentration en DAH = 2 mM • . En abscisses : temps de culture (en jours) • . En ordonnées : taux de croissance.
Effet du DAH sur la mortalité cellulaire de lymphocytes infectés.
(●) absence de DAH (o) concentration en DAH = 0,5 mM (□) concentration en DAH = 1 mM (△) concentration en DAH = 1,5 mM (◇) concentration en DAH = 2 mM • . En abscisses : temps de culture (en jours) • . En ordonnées : proportion de cellules mortes (en %).

leucémie L1210 = assay: Antitumour activity in the L1210 leukaemia model, survival; assay type: in vivo, souris B6D2F1/J; conditions: for Nombre d'animaux survivants: at 30 days
Description: L'activité antitumorale du DAH et du LAH a été étudiée sur le modèle de leucémie L1210. Les cellules leucémiques L1210 sont maintenues par passages intrapéritonéaux dans la souris B6D2F1/J mâle. […] La durée d'observation est de 30 jours.

N[C@@H](CC(=O)NO)C(=O)O [DAH, D-acide aspartique β-hydroxamate]
poids corporel, intervalle (+/-) par rapport à un groupe contrôle [1]: ≤ 10% | tolérance à l'administration prolongée ([1]; no clinical sign of toxicity, no death): excellente | Nombre d'animaux survivants (virus de Friend; 1 g/kg x 3/j J 1-10 then x 2/j J 11-30): 5/10 | T/Cx100 (virus de Friend; 1 g/kg x 3/j J 1-10 then x 2/j J 11-30, T/C = survival time treated/controls): 239,86% | Nombre d'animaux survivants (virus de Friend; 1 g/kg x 3/j, J 1-10): 0/10 | T/Cx100 (virus de Friend; 1 g/kg x 3/j, J 1-10): 193% | modification structurale du DAH éliminé par voie urinaire [2]: aucune modification structurale | pic plasmatique moyen [2]: 6 mg/mL | pic urinaire [2]: 220 mg/mL | temps du pic plasmatique [2]: 20 min | élimination urinaire prolongée sur [2]: 24 heures | temps du pic urinaire ([2]; after injection): 250 min | demi-vie ([2]; decrease of plasma concentration): 35 min | toxicité pour les lymphocytes non infectés par le virus HIV [3]: n'est pas toxique | activité in vivo sur trois modèles tumoraux murins [4]: aucune activité | toxicité vis-à-vis des lymphocytes infectés par le virus du SIDA [5]: plus toxique | T/Cx100 (leucémie L1210; 0,5 g/kg x4/j, days 1,2,3): 113% | Nombre d'animaux survivants (leucémie L1210; 0,5 g/kg x4/j, days 1,2,3): 0/5 | T/Cx100 (leucémie L1210; 1,5 g/kg x4/j, days 1,2,3): 276% | T/Cx100 (leucémie L1210; 1,5 g/kg x4/j, days 1,2,3,4): 347% | Nombre d'animaux survivants (leucémie L1210; 1,5 g/kg x4/j, days 1,2,3,4): 3/5 | Nombre d'animaux survivants (leucémie L1210; 1,5 g/kg x4/j, days 1,2,3): 0/5 | T/Cx100 (leucémie L1210; 1 g/kg x3/j, days 1-10): 347% | Nombre d'animaux survivants (leucémie L1210; 1 g/kg x3/j, days 1-10): 3/5 | T/Cx100 (leucémie L1210; 1 g/kg x4/j, days 1,2,3): 171% | Nombre d'animaux survivants (leucémie L1210; 1 g/kg x4/j, days 1,2,3): 0/5 | survie des animaux traités (leucémie L1210; 1 g/kg, 4 times a day for 3 days): prolongation très significative de la survie | activité antitumorale (leucémie L1210; dose of 1 g/kg or more, 3 or 4 times a day): activité antitumorale significative
